Test results as given in patent US6734168B2, “Endothelial monocyte activating polypeptide II: a mediator which activates host response” (The Trustees of Columbia University in the City of New York, priority 1993, dated 2004).

Assays:
[1] = test system: human MPs; assay: Radioligand binding of 125I-[…] to MPs; settings: excess / increasing concentrations of unlabelled competitor
Description: Radioligand binding studies were performed on human MPs plated in 96-well plates (5-6×10^4 cells/well). Cells were washed twice with Hanks balanced salt solution, and then Dulbecco's Modified Eagle Medium containing HEPES (25 mM; pH 7.4), penicillin/streptomycin (50 U/ml; 50 μg/ml), and bovine serum albumin-fatty acid free (0.5%; Sigma) were added (0.1 ml/well). Cultures were incubated at 4° C. for 2 hrs with ^125I-[…] alone or in the presence of unlabelled peptide/protein. Each well was washed four times over a period of 20 sec, and cell-associated radioactivity was eluted by an acidic buffer (HCl, 0.1 M, pH 2; NaCl, 0.1 M) at 4° C. for 5 min. During the elution period, there was no detachment of cells from the growth substrate. The conditions for incubation and washing used in the binding studies shown in FIG. 3 (2 hrs at 4° C.) were […] to allow binding of ^125I-[…] to reach an apparent maximum, even at the lowest tracer concentrations, and to remove unbound material by washing quickly so that <10% of the cell-bound radioactivity dissociated.

[2] = test system: human MPs; assay: MP tissue factor activity, Factor VIIa-dependent Factor Xa formation; format: cell-based
Description: Tissue factor activity of monolayers of ECs and MPs was determined (7) after incubation with EMAP II-derived peptides at 37° C. for 4-12 hrs by washing cultures with HEPES (10 MM; pH 7.4), NaCl (137 mM), KCl (4 mM), CaCl2 (3 mM), glucose (10 mM), bovine serum albumin (0.5 mg/ml), and addition of 0.5 ml of the same buffer along with purified human Factor VIIa (1 nM) and Factor X (200 nM) for 45 min at 37° C. Aliquots (0.05 ml) of the reaction mixture (one per well) were withdrawn at 15 min intervals, added to a buffer containing Tris (50 mM; pH 7.9), NaCl (175 mM), EDTA (5 mM) and bovine serum albumin (0.5 mg/ml; 0.05 ml), and the chromogenic substrate Spectrozyme Factor Xa (American Diagnositca, Inc., Greenwich Conn.; 0.01 ml; 2 mM). Cleavage of the substrate was monitored by the change in absorbance at 405 nm (BioKinetics Reader, Winooski, Vt.). Factor Xa concentration was determined by comparison with a standard curve generated with known amounts of purified human Factor Xa. Human, plasma-derived Factors VIIa and X were purified to homogeneity as described (31).
In Vitro Assays of EC, MP, and PMN Functions-Cell-associated tissue factor was assayed by its functional activity, using purified coagulation proteins, and tissue factor mRNA was detected by PCR. […] The concentration of Factor Xa was determined based on a standard curve generated with purified Factor Xa. […]

[3] = test system: human MPs; assay: [Ca2+]i measurement in MPs (fura-2); format: cell-based
Description: [Ca^2+1]i measurements. PMNs or MPs (2×10^7 cells in each case) were incubated with fura-2 AM (1 μM) and pluronic detergent (0.02%) for 12 min at room temperature, diluted sixfold, and incubated for a further 30 min at room temperature to allow for complete hydrolysis of the dye. Cells were then resuspended in HEPES-buffered saline at 5×10^5 cells/ml (32). For experiments using MPs, sulfinpyrazone (0.5 mM) was included at all steps to minimize both dye sequestration into intracellular organelles and dye efflux (33). Fluorescence of fura-2 was monitored at 37° C. in a thermostatically-controlled cuvette installed in a Perkin Elmer Model 650-40 fluorescense spectrophotometer. Calibration of [Ca^2+]i was performed as described (34).
For determination of [Ca^2+] in PMSs and MPs, cells (2×10^7 in each case) were incubated with fura-2 AM (1 um) and pluronci detergent (0.02%) at room temperature, diluted 6-fold, and incubated for a further 30 min at room temperature to allow for complete hydrolysis of the dye. Cells were then resuspended in HEPES-buffered saline at 5×10^5 cells/ml (32). For MPs, sulfinpyrazone (0.5 mM) was included at all steps to minimize both dye sequestration into intracellular organelles and dye efflux (33). Fluorescence of fura-2 was monitored at 37° C. in a thermostatically controlled cuvette installed in a Perkin Elmer model 650-40 fluorescence spectrophotometer. […]

**Q.** How did the “Competition for binding of 125I-RIGRIVTAKY to MPs by unlabelled peptide/protein” value [1] turn out when “ASRLDLRIGRIVTAKY [residues #6-20 from EMAP II, Cys to Arg substitution at position #15, and a C-terminal Tyr]” was run?
**A.** inhibition

**Q.** What about the “Induction of tissue factor activity in MPs (Factor VIIa-dependent Factor X activation)” value [2] of the same sequence?
**A.** did not demonstrate induction of tissue factor activity

**Q.** What about the “Rise in [Ca2+]i in MPs” value [3] of the same sequence?
**A.** results in elevation of [Ca^2+]i
